In PubChem BioAssay (NCI):
“And” between values parts separate entries of the source, which are not always exact repeats. Equal values may be shown once.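 48-hour exposure; five concentrations; linearly interpolated endpoints. GI50 is the concentration that inhibits growth by half. TGI: concentration producing complete growth inhibition.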

Experiments:
Assay in all cases: inhibition of tumour cell growth, NCI panel, 48 h
HOP-92 NSCLC = tested on: HOP-92 NSCLC
LOX IMVI melanoma = tested on: LOX IMVI melanoma
MCF7 breast = tested on: MCF7 breast
NCI-H226 lung = tested on: NCI-H226 lung
NCI-H460 lung = tested on: NCI-H460 lung
OVCAR-3 ovarian = tested on: OVCAR-3 ovarian
OVCAR-8 ovarian = tested on: OVCAR-8 ovarian
SF-539 CNS = tested on: SF-539 CNS
SK-OV-3 ovarian = tested on: SK-OV-3 ovarian
U251 CNS = tested on: U251 CNS

Row | Structure (SMILES) | GI50 (HOP-92 NSCLC) | TGI (HOP-92 NSCLC) | GI50 (LOX IMVI melanoma) | TGI (LOX IMVI melanoma) | GI50 (MCF7 breast) [µM] | TGI (MCF7 breast) | GI50 (NCI-H226 lung) | TGI (NCI-H226 lung) | GI50 (NCI-H460 lung) | TGI (NCI-H460 lung) | GI50 (OVCAR-3 ovarian) | TGI (OVCAR-3 ovarian) | GI50 (OVCAR-8 ovarian) | TGI (OVCAR-8 ovarian) | GI50 (SF-539 CNS) | TGI (SF-539 CNS) | GI50 (SK-OV-3 ovarian) | TGI (SK-OV-3 ovarian) | GI50 (U251 CNS) | TGI (U251 CNS)
1 | COC(=O)[C@@H](NC(=O)NC(=O)NC(=O)CI)C(C)C | 2.7 µM | 7.36 µM | 1.69 µM | 3.33 µM | 3.03 | 12.7 µM | 16.2 µM | 38.4 µM | 18.9 µM | 38.2 µM | 2.23 µM | 4.78 µM | 18.8 µM | 41.4 µM | 3.92 µM | 14.8 µM | 18.3 µM | 33 µM | 17.3 µM | 31.1 µM
2 | C=CC(=O)Nc1ccc(Nc2nccc(-c3ccc(N4CCCC4)c(C#N)c3)n2)cc1 | > 25 µM | > 25 µM | > 25 µM | > 25 µM | 9.55 | > 25 µM | > 25 µM | > 25 µM | 4.61 µM | > 25 µM | > 25 µM | > 25 µM | > 25 µM | > 25 µM | 6.88 µM | > 25 µM | > 25 µM | > 25 µM | 15.4 µM | > 25 µM
3 | Cc1[nH]ncc1-c1cc2nc(C3CC4CCN3CC4)[nH]c(=O)c2s1 (stereo not drawn) | 5.5 µM | > 100 µM | 1.46 µM | 21.1 µM | 2.58 | > 100 µM | 2.82 µM | > 100 µM | 2.44 µM | > 100 µM | 3.74 µM | > 100 µM | 3.2 µM | > 100 µM | 1.47 µM | 7.74 µM | 14.5 µM | > 100 µM | 2.52 µM | > 100 µM
4 | COc1ccc(-c2[nH]ncc2-c2cc3c(c(OC)c2)OCC(=O)N3)cc1 | 1.11 µM | 99.7 µM | 0.522 µM | > 100 µM | 0.315 | 62.4 µM | 1.66 µM | 41.5 µM | 0.365 µM | 4.79 µM | 0.36 µM | 49 µM | 1.17 µM | > 50.1 µM | 0.372 µM | 2.16 µM | 0.715 µM | > 100 µM | 0.481 µM | > 100 µM
5 | O=C(/C=C/c1ccc(B(O)O)cc1)/C=C/c1ccc(B(O)O)cc1 | 7.94 µM | 22.9 µM | 1.59 µM | 3.07 µM | 0.415 | 3.89 µM | 3.23 µM | 16.1 µM | 8.19 µM | 23.6 µM | 3.11 µM | 9.27 µM | 9.39 µM | 22 µM | 2.03 µM | 5.35 µM | 3.65 µM | 14.5 µM | 2.82 µM | 10.4 µM
6 | CCCN(CCC)CCCNCc1cc(I)cc(C)c1O | 5.04 µM | 18.6 µM | 14.6 µM | 27.7 µM | 17.6 | 31.8 µM | 22.3 µM | 66.1 µM | 13.3 µM | 26 µM | 14.8 µM | 27.9 µM | 17.4 µM | 35.7 µM | 14.7 µM | 27.9 µM | 16.3 µM | 31 µM | 15.9 µM | 29.4 µM
7 | Cc1ccc(C(=O)N(CCCN)[C@@H](c2nc3cc(Cl)ccc3c(=O)n2Cc2ccccc2)C(C)C)cc1 | 1 µM | 2 µM and 2.33 µM | < 0.01 µM | 1.81 µM and 1.52 µM | < 0.01 | 1.59 µM and 1.33 µM | 0.325 µM | 2.25 µM and 2.5 µM | < 0.01 µM | 1.09 µM and 1.25 µM | < 0.01 µM |  | < 0.01 µM | 1.52 µM and 2.11 µM | < 0.01 µM | 1.38 µM and 0.654 µM | < 0.01 µM | 1.65 µM and 2.19 µM | < 0.01 µM | 1.19 µM and 1.53 µM
8 | COc1cc(/C(Cl)=C/C=C/C(=O)c2c(C)[n+]([O-])c3ccc(Cl)cc3[n+]2[O-])cc(OC)c1OC | 4.7 µM | 28.1 µM | 1.77 µM | 7.54 µM | 1.76 | > 50 µM | 13.3 µM | > 50 µM | 11.5 µM | > 50 µM | 2.39 µM | 10 µM | 3.09 µM | > 50 µM | 3.67 µM | > 50 µM | 7.4 µM | 31.5 µM | 2.57 µM | 10.5 µM
9 | CC(C)[C@](O)(c1ccc2cc(OC(F)F)c(OC(F)F)cc2c1)c1cn[nH]n1 | 13.6 µM and 13.5 µM | 32.2 µM and 29.3 µM | 15.7 µM and 14.8 µM | 29.1 µM and 28.9 µM |  | 22.4 µM and 35.9 µM | 23.1 µM and 18.9 µM | 55.4 µM and 46.1 µM | 18.9 µM and 17.7 µM | 34.9 µM and 34.3 µM | 18.7 µM and 14 µM | 36.6 µM and 29.1 µM | 29.6 µM and 26.4 µM | 81.1 µM and 62.5 µM | 16.5 µM and 16.2 µM | 32.4 µM and 32.3 µM | 14.6 µM and 17.7 µM | 38.6 µM and 45.5 µM | 16.5 µM and 16.1 µM | 33.5 µM and 32 µM
